Reference: PubChem BioAssay (NCI)
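Exposure lasted 48 hours, with cells grown in 96-well plates and compounds tested at five concentrations. GI50 = concentration required for 50% inhibition of growth. TGI marks complete inhibition of growth.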

Legend:
Assay in all cases: NCI-60 cell line screen, 48 h
[1] = test system: A498 renal
[2] = test system: ACHN renal
[3] = test system: BT-549 breast
[4] = test system: CAKI-1 renal
[5] = test system: CCRF-CEM leukemia
[6] = test system: COLO 205 colon
[7] = test system: DU-145 prostate
[8] = test system: HCC-2998 colon
[9] = test system: HCT-116 colon
[10] = test system: HL-60(TB) leukemia
[11] = test system: HOP-92 NSCLC
[12] = test system: HS 578T breast
[13] = test system: HT29 colon
[14] = test system: KM12 colon
[15] = test system: LOX IMVI melanoma
[16] = test system: M14 melanoma
[17] = test system: MALME-3M melanoma
[18] = test system: MDA-MB-435
[19] = test system: NCI-H226 lung
[20] = test system: NCI-H23 lung
[21] = test system: OVCAR-4 ovarian
[22] = test system: OVCAR-5 ovarian
[23] = test system: OVCAR-8 ovarian
[24] = test system: PC-3 prostate
[25] = test system: RPMI-8226 leukemia
[26] = test system: RXF 393 renal
[27] = test system: SF-268 CNS
[28] = test system: SF-539 CNS
[29] = test system: SK-MEL-2 melanoma
[30] = test system: SK-MEL-28 melanoma
[31] = test system: SK-MEL-5 melanoma
[32] = test system: SK-OV-3 ovarian
[33] = test system: SNB-19 CNS
[34] = test system: SNB-75 CNS
[35] = test system: SW-620 colon
[36] = test system: TK-10 renal
[37] = test system: UACC-257 melanoma
[38] = test system: UACC-62 melanoma

## C[PH+](c1nc2ccccc2nc1[PH+](C)C(C)(C)C)C(C)(C)C.C[PH+](c1nc2ccccc2nc1[PH+](C)C(C)(C)C)C(C)(C)C.[Au+].[Cl-] (stereo not given)
[1]
  GI50: 26.3 nM
  TGI: 445 nM
[2]
  GI50: 113 nM
  TGI: 835 nM
[3]
  GI50: 32.4 nM
  TGI: 96.1 nM
[4]
  GI50: 222 nM
  TGI: 537 nM
[5]
  GI50: 60.3 nM
  TGI: 1500 nM
[6]
  GI50: 19.8 nM
  TGI: 44.2 nM
[7]
  GI50: 40.1 nM
  TGI: 374 nM
[8]
  GI50: 29.6 nM
  TGI: 302 nM
[9]
  GI50: 20.5 nM
  TGI: 61.3 nM
[10]
  GI50: 70 nM
  TGI: 1020 nM
[11]
  GI50: 22.5 nM
  TGI: 68.1 nM
[12]
  GI50: 44.7 nM
  TGI: 1750 nM
[13]
  GI50: 29.4 nM
[14]
  GI50: 31.4 nM
  TGI: 131 nM
[15]
  GI50: 39.6 nM
  TGI: 155 nM
[16]
  GI50: 38.6 nM
  TGI: 310 nM
[17]
  GI50: 26.3 nM
  TGI: 81.1 nM
[18]
  GI50: 34.5 nM
  TGI: 158 nM
[19]
  GI50: 53.9 nM
  TGI: 2440 nM
[20]
  GI50: 26.1 nM
  TGI: 104 nM
[21]
  GI50: 34.9 nM
  TGI: 770 nM
[22]
  GI50: 44.1 nM
  TGI: 457 nM
[23]
  GI50: 35.8 nM
  TGI: 1880 nM
[24]
  GI50: 28.6 nM
  TGI: 144 nM
[25]
  GI50: 35.7 nM
  TGI: 245 nM
[26]
  GI50: 103 nM
  TGI: 449 nM
[27]
  GI50: 38.4 nM
  TGI: 1350 nM
[28]
  GI50: 53 nM
  TGI: 1140 nM
[29]
  GI50: 31.8 nM
  TGI: 98.6 nM
[30]
  GI50: 53.8 nM
  TGI: 1500 nM
[31]
  GI50: 32.9 nM
  TGI: 105 nM
[32]
  GI50: 29.3 nM
  TGI: 117 nM
[33]
  GI50: 45.3 nM
  TGI: 1700 nM
[34]
  GI50: 22.4 nM
  TGI: 1340 nM
[35]
  GI50: 35.6 nM
  TGI: 1180 nM
[36]
  GI50: 43.1 nM
  TGI: 1130 nM
[37]
  GI50: 35.9 nM
  TGI: 278 nM
[38]
  GI50: 37.1 nM
  TGI: 165 nM
